Source: ChEMBL document CHEMBL4177690, “(E)-3-(3,4,5-Trimethoxyphenyl)-1-(pyridin-4-yl)prop-2-en-1-one, a heterocyclic chalcone is a potent and selective CYP1A1 inhibitor and cancer chemopreventive agent” (Bioorg Med Chem Lett, 2017)

Key:
[1] = biological target: T1, Cytochrome P450 1A1 (Homo sapiens, UniProt P04798); test: Inhibition of recombinant human CYP1A1 expressed in HEK293 cells assessed as reduction in benzo(a)pyrene-induced toxicity by measuring increase in B[a]P EC50 at 2 times IC50 by MTT assay; assay type: cell-based
T1 sequence (P04798 whole entry): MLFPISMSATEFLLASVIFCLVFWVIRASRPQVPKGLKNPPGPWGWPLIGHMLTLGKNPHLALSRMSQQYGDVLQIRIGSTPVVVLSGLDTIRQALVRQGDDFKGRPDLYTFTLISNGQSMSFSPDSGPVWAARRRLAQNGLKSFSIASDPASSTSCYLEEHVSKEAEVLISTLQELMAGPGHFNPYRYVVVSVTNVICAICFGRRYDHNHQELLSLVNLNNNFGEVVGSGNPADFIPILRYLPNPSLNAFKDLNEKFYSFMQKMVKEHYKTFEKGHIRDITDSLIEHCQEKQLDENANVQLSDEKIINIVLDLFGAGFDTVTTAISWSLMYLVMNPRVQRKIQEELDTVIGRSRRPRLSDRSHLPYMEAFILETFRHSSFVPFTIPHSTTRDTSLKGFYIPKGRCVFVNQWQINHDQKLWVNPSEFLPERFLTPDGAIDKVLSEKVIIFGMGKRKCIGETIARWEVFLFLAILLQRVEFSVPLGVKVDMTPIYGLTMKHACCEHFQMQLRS

[2] = biological target: T2, Cytochrome P450 1B1 (Homo sapiens, UniProt Q16678); test: Inhibition of recombinant human CYP1B1 expressed in HEK293 cells assessed as potentiation of cisplatin-induced cytotoxicity by measuring reduction in cisplatin EC50 by MTT assay; assay type: cell-based
T2 sequence (Q16678 whole entry): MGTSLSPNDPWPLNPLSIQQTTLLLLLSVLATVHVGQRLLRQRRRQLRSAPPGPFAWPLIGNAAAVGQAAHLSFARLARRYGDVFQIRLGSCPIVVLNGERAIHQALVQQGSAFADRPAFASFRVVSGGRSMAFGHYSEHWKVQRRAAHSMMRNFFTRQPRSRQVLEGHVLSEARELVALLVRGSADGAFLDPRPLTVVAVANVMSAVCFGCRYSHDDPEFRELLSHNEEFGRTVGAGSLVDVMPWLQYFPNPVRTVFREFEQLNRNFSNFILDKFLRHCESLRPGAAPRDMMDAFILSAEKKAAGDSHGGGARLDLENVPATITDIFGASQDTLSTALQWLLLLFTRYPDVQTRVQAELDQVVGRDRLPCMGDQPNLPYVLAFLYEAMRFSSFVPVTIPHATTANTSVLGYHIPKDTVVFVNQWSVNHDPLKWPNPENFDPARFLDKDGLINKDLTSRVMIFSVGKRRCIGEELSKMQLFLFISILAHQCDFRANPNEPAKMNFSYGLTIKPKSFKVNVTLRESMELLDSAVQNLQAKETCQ

[3] = biological target: T3, Cytochrome P450 2C9 (Homo sapiens, UniProt P11712); test: Inhibition of recombinant human CYP2C9 expressed in HEK293 cells using 3-cyano-7-ethoxycoumarin as substrate pretreated for 30 mins followed by substrate addition measured for 60 mins by fluorescence assay; assay type: ADME
[4] = biological target: T2, Cytochrome P450 1B1; test: Inhibition of recombinant human CYP1B1 expressed in HEK293 cells using 7-ethoxyresorufin as substrate pretreated for 30 mins followed by substrate addition measured for 60 mins by fluorescence assay; assay type: cell-based
[5] = organism: Homo sapiens; test: Selectivity ratio of IC50 for recombinant human CYP1B1 expressed in HEK293 cells to IC50 for recombinant human CYP1A1 expressed in HEK293 cells; assay type: cell-based
[6] = biological target: T4, Cytochrome P450 2C19 (Homo sapiens, UniProt P33261); test: Inhibition of human CYP2C19 expressed in yeast microsomal membranes using 3-cyano-7-ethoxycoumarin as substrate measured after 10 mins by fluorescence assay; assay type: ADME, cell membranes, Microsomal Membrane
[7] = biological target: T1, Cytochrome P450 1A1; test: Inhibition of recombinant human CYP1A1 expressed in HEK293 cells using 7-ethoxyresorufin as substrate pretreated for 30 mins followed by substrate addition measured for 60 mins by fluorescence assay; assay type: cell-based
[8] = biological target: T4, Cytochrome P450 2C19; test: Inhibition of recombinant human CYP2C19 expressed in HEK293 cells using 3-cyano-7-ethoxycoumarin as substrate pretreated for 30 mins followed by substrate addition measured for 60 mins by fluorescence assay; assay type: ADME
[9] = biological target: T5, Cytochrome P450 1A2 (Homo sapiens, UniProt P05177); test: Inhibition of human CYP1A2 expressed in yeast microsomal membranes using 3-cyano-7-ethoxycoumarin as substrate measured after 10 mins by fluorescence assay; assay type: ADME, cell membranes, Microsomal Membrane
T5 sequence (P05177 whole entry): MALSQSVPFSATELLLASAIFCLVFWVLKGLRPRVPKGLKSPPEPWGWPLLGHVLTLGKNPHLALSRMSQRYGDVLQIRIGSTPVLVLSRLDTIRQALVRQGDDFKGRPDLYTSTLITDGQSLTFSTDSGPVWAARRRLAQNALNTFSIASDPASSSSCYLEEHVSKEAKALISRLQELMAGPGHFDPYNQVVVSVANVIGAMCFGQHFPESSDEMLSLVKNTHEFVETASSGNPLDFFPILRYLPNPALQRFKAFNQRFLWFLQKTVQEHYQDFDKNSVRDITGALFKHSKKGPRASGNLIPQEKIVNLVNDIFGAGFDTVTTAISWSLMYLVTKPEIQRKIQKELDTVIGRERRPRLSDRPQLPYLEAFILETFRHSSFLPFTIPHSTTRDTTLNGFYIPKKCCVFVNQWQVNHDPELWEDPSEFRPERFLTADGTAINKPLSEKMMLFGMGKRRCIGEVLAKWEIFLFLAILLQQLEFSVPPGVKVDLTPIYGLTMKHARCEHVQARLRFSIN

[10] = biological target: T6, Aryl hydrocarbon receptor (Homo sapiens, UniProt P35869); test: Antagonist activity at recombinant human eGFP-fused Ahr expressed in yeast cells co-expressing ARNT assessed as inhibition of benzo(a)pyrene-induced Ahr activation at 1 uM measured after 18 hrs by fluorescence assay; assay type: cell-based
T6 sequence (P35869 whole entry): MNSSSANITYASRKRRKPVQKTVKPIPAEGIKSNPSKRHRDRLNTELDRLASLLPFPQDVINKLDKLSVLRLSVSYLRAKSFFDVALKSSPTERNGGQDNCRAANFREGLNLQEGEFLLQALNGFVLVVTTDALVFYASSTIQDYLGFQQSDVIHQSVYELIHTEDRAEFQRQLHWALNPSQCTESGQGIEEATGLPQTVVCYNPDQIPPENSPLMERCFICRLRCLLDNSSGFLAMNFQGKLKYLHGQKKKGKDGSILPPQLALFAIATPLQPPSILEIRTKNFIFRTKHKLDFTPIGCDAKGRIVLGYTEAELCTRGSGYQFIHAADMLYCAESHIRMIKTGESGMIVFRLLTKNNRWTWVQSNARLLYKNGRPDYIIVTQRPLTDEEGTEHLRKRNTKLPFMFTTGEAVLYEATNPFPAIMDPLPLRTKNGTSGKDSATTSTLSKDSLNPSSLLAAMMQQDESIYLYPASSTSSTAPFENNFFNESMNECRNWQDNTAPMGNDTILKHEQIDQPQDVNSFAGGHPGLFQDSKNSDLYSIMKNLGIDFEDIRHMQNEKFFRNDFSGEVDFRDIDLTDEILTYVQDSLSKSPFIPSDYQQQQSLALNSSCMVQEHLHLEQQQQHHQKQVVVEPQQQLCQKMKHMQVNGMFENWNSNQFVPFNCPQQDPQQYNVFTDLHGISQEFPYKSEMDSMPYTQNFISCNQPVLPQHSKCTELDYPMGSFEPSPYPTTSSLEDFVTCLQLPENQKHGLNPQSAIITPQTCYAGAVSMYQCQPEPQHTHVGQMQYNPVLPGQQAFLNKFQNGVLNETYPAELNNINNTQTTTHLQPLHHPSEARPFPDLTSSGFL

[11] = biological target: T7, Cytochrome P450 3A4 (Homo sapiens, UniProt P08684); test: Inhibition of recombinant human CYP3A4 expressed in HEK293 cells using dibenzylfluorescein as substrate pretreated for 30 mins followed by substrate addition measured for 60 mins by fluorescence assay; assay type: ADME
[12] = biological target: T7, Cytochrome P450 3A4; test: Inhibition of human CYP3A4 expressed in yeast microsomal membranes using dibenzylfluorescein as substrate measured after 10 mins by fluorescence assay; assay type: ADME, cell membranes, Microsomal Membrane
[13] = biological target: T1, Cytochrome P450 1A1; test: Inhibition of human CYP1A1 expressed in yeast microsomal membranes using 7-ethoxyresorufin as substrate measured after 10 mins by fluorescence assay; assay type: cell membranes
[14] = biological target: T2, Cytochrome P450 1B1; test: Inhibition of human CYP1B1 expressed in yeast microsomal membranes using 7-ethoxyresorufin as substrate measured after 10 mins by fluorescence assay; assay type: cell membranes
[15] = biological target: T8, Cytochrome P450 2D6 (Homo sapiens, UniProt P10635); test: Inhibition of recombinant human CYP2D6 expressed in HEK293 cells using 7-ethoxy-methyloxy-3-cyanocoumarin as substrate pretreated for 30 mins followed by substrate addition measured for 60 mins by fluorescence assay; assay type: ADME, cell-based
[16] = biological target: T3, Cytochrome P450 2C9; test: Inhibition of human CYP2C9 expressed in yeast microsomal membranes using 3-cyano-7-ethoxycoumarin as substrate measured after 10 mins by fluorescence assay; assay type: ADME, cell membranes, Microsomal Membrane
[17] = biological target: T5, Cytochrome P450 1A2; test: Inhibition of recombinant human CYP1A2 expressed in HEK293 cells using 3-cyano-7-ethoxycoumarin as substrate pretreated for 30 mins followed by substrate addition measured for 60 mins by fluorescence assay; assay type: ADME
[18] = biological target: T8, Cytochrome P450 2D6; test: Inhibition of human CYP2D6 expressed in yeast microsomal membranes using 7-ethoxy-methyloxy-3-cyanocoumarin as substrate measured after 10 mins by fluorescence assay; assay type: ADME, cell membranes, Microsomal Membrane
[19] = organism: Homo sapiens; test: Selectivity ratio of IC50 for recombinant human CYP1A2 expressed in HEK293 cells to IC50 for recombinant human CYP1A1 expressed in HEK293 cells; assay type: cell-based

T3 sequence (P11712 whole entry): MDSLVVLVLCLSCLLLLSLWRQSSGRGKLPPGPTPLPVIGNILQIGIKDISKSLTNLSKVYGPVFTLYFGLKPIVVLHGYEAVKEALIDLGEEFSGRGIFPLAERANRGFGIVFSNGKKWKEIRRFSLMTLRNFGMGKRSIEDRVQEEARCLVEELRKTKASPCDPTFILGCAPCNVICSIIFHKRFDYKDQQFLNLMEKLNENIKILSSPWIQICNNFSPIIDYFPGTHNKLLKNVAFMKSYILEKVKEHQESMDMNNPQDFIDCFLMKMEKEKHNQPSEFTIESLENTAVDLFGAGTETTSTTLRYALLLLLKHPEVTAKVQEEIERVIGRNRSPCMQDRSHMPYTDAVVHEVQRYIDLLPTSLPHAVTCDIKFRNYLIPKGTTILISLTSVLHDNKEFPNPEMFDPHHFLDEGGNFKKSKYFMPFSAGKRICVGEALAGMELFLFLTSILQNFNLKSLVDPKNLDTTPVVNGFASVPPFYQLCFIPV
T8 sequence (P10635 whole entry): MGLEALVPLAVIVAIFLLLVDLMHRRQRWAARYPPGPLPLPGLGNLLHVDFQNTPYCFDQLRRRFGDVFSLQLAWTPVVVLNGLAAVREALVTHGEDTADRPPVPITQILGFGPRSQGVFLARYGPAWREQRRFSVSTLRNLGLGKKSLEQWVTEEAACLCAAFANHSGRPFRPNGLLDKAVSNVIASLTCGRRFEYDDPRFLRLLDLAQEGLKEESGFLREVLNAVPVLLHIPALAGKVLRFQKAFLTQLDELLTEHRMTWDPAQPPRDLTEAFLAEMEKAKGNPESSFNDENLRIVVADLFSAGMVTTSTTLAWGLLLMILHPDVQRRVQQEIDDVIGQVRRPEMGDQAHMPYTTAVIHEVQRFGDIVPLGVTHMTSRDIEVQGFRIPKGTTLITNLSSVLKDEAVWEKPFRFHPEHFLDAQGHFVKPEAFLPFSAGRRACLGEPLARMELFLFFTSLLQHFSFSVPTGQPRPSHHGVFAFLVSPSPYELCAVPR
T7 sequence (P08684 whole entry): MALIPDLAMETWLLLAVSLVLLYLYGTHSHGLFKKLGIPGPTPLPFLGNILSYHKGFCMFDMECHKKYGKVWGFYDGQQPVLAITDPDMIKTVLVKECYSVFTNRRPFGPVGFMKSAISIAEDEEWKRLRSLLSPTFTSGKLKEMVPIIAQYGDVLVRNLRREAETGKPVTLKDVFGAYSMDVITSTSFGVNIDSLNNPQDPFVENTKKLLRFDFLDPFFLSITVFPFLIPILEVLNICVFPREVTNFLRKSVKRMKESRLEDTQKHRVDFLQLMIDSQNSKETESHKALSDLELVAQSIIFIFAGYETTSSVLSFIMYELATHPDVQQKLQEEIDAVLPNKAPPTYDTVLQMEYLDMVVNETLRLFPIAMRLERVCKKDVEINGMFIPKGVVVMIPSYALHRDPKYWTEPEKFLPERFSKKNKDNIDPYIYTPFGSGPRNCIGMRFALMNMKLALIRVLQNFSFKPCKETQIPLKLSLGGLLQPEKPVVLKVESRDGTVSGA
T4 sequence (P33261 whole entry): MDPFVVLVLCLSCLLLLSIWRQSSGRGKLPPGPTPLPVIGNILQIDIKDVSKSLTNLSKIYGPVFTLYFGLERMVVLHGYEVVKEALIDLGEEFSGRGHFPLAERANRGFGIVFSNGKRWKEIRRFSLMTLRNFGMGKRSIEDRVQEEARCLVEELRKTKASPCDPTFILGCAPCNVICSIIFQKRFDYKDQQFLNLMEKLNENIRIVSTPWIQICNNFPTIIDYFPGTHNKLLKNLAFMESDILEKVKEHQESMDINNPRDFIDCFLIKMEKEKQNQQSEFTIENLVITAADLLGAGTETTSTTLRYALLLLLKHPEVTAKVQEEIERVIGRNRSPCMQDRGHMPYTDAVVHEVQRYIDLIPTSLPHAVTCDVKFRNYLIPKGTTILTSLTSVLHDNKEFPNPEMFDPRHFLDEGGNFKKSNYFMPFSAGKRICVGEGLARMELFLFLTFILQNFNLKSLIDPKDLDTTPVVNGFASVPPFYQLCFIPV

| SMILES | inhibition (INH) [1] | inhibition (INH) [2] | IC50 [3] | IC50 [4] | Ratio IC50 [5] | IC50 [6] | IC50 [7] | IC50 [8] | IC50 [9] | inhibition (INH) [10] | IC50 [11] | IC50 [12] | IC50 [13] | IC50 [14] | IC50 [15] | IC50 [16] | IC50 [17] | IC50 [18] | Ratio IC50 [19] |
| --- | --- | --- | --- | --- | --- | --- | --- | --- | --- | --- | --- | --- | --- | --- | --- | --- | --- | --- | --- |
| O=c1cc(-c2ccccc2)oc2c1ccc1ccccc12 [ALPHA-NAPHTHOFLAVONE] | Active | Active | – | – | – | – | – | – | – | – | – | – | – | – | – | – | – | – | – |
| CCOc1cc(/C=C/C(=O)c2ccncc2)cc(OC)c1OCC | – | – | > 10 µM | 3.07 µM | < 10 | > 20 µM | 0.065 µM | > 10 µM | 0.78 µM | Active | > 10 µM | > 20 µM | 0.065 µM | 2.92 µM | > 10 µM | > 20 µM | 0.82 µM | 15 µM | < 10 |
